Assay results: patent US9376425B2, “Heterocyclic compounds as MDM2 inhibitors for the treatment of cancer” (AMGEN INC., priority 2011, dated 2016)

Molecular target: T1, human MDM2 (GST-hMDM2 1-188), interaction with biotinylated-p53 (1-83) (Homo sapiens, UniProt Q00987)
T1 construct: Amino acid residues 1-188 of human MDM2 were expressed; made in house; host or cells: Escherichia coli
Assay: improved HTRF assay (HTRF2 assay), inhibition of HDM2-p53 interaction
Format: binding
Conditions: 0.2 nM GST-hMDM2, 0.5 nM biotinylated-p53, 100 mM KF
Summary of the method: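 Time-resolved fluorescence (HTRF) read after >4 h equilibration with SA-XLent/anti-GST cryptate/KF detection reagents. Reaction: compound plus GST-hMDM2 for 20 min at room temperature, then E. coli-expressed biotinylated p53 residues 1-83 for 60 min, 2% DMSO final. Inhibition expressed versus nutlin-3.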

T1 sequence (Q00987 1-188): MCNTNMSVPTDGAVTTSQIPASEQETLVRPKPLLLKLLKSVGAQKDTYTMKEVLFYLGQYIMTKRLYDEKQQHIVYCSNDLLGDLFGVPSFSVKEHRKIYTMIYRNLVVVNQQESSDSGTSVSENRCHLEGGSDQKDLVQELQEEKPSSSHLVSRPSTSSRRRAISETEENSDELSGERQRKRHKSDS

Compound	IC50 [nM]
CC(C)[C@@H](CN(c1ccccc1)S(=O)(=O)C1CC1)N1C(=O)[C@@H](CC(=O)O)O[C@H](c2cccc(Cl)c2)[C@H]1c1ccc(Cl)cc1 (single isomer, unassigned) [Example 192, 2-((2R,5R,6R)-6-(3-chlorophenyl)-5-(4-chlorophenyl)-4-((S)-3-methyl-1-(N-phenylcyclopropanesulfonamido)butan-2-yl)-3-oxomorpholin-2-yl)acetic acid or 2-((2S,5R,6R)-6-(3-chlorophenyl)-5-(4-chlorophenyl)-4-((S)-3-methyl-1-(N-phenylcyclopropanesulfonamido)butan-2-yl)-3-oxomorpholin-2-yl)acetic acid]	1
CC(C)[C@H](CN(c1ccccc1)S(=O)(=O)C1CC1)N1C(=O)[C@@H](CC(=O)O)O[C@H](c2cccc(Cl)c2)[C@H]1c1ccc(Cl)cc1 (single isomer, unassigned) [Example 193, 2-((2R,5R,6R)-6-(3-chlorophenyl)-5-(4-chlorophenyl)-4-((R)-3-methyl-1-(N-phenylcyclopropanesulfonamido)butan-2-yl)-3-oxomorpholin-2-yl)acetic acid or 2-((2S,5R,6R)-6-(3-chlorophenyl)-5-(4-chlorophenyl)-4-((R)-3-methyl-1-(N-phenylcyclopropanesulfonamido)butan-2-yl)-3-oxomorpholin-2-yl)acetic acid]	32
CCC[C@@H](CS(=O)(=O)C(C)(C)C)N1C(=O)[C@@H](CC(=O)O)O[C@H](c2cccc(Cl)c2)[C@H]1c1ccc(Cl)cc1 (single isomer, unassigned) [Example 194, 2-((2R,5R,6R)-4-((S)-1-(tert-butylsulfonyl)pentan-2-yl)-6-(3-chlorophenyl)-5-(4-chlorophenyl)-3-oxomorpholin-2-yl)acetic acid or 2-((2S,5R,6R)-4-((S)-1-(tert-butylsulfonyl)pentan-2-yl)-6-(3-chlorophenyl)-5-(4-chlorophenyl)-3-oxomorpholin-2-yl)acetic acid]	3
CCC[C@@H](CS(=O)(=O)C(C)(C)C)N1C(=O)[C@@H](CC(=O)O)O[C@H](c2cccc(Cl)c2)[C@H]1c1ccc(Cl)cc1 (single isomer, unassigned) [Example 195, 2-((2R,5R,6R)-4-((S)-1-(tert-butylsulfonyl)pentan-2-yl)-6-(3-chlorophenyl)-5-(4-chlorophenyl)-3-oxomorpholin-2-yl)acetic acid or 2-((2S,5R,6R)-4-((S)-1-(tert-butylsulfonyl)pentan-2-yl)-6-(3-chlorophenyl)-5-(4-chlorophenyl)-3-oxomorpholin-2-yl)acetic acid]	3
CC(C)[C@@H](CN(c1ccccc1F)S(=O)(=O)C(C)C)N1C(=O)[C@@H](CC(=O)O)O[C@H](c2cccc(Cl)c2)[C@H]1c1ccc(Cl)cc1 (single isomer, unassigned) [Example 198, 2-((2R,5R,6R)-6-(3-chlorophenyl)-5-(4-chlorophenyl)-4-((S)-1-(N-(2-fluorophenyl)propan-2-ylsulfonamido)-3-methylbutan-2-yl)-3-oxomorpholin-2-yl)acetic acid or 2-((2S,5R,6R)-6-(3-chlorophenyl)-5-(4-chlorophenyl)-4-((S)-1-(N-(2-fluorophenyl)propan-2-ylsulfonamido)-3-methylbutan-2-yl)-3-oxomorpholin-2-yl)acetic acid]	1
CC(C)[C@@H](CN(c1ccccc1F)S(=O)(=O)C(C)C)N1C(=O)[C@@H](CC(=O)O)O[C@H](c2cccc(Cl)c2)[C@H]1c1ccc(Cl)cc1 (single isomer, unassigned) [Example 199, 2-((2R,5R,6R)-6-(3-chlorophenyl)-5-(4-chlorophenyl)-4-((S)-1-(N-(2-fluorophenyl)propan-2-ylsulfonamido)-3-methylbutan-2-yl)-3-oxomorpholin-2-yl)acetic acid or 2-((2S,5R,6R)-6-(3-chlorophenyl)-5-(4-chlorophenyl)-4-((S)-1-(N-(2-fluorophenyl)propan-2-ylsulfonamido)-3-methylbutan-2-yl)-3-oxomorpholin-2-yl)acetic acid]	1
CC(C)[C@@H](CN(c1ccccc1F)S(=O)(=O)C(C)(C)C)N1C(=O)[C@@H](CC(=O)O)O[C@H](c2cccc(Cl)c2)[C@H]1c1ccc(Cl)cc1 (single isomer, unassigned) [Example 200, 2-((2R,5R,6R)-6-(3-chlorophenyl)-5-(4-chlorophenyl)-4-((S)-1-(N-(2-fluorophenyl)-2-methylpropan-2-ylsulfonamido)-3-methylbutan-2-yl)-3-oxomorpholin-2-yl)acetic acid or 2-((2S,5R,6R)-6-(3-chlorophenyl)-5-(4-chlorophenyl)-4-((S)-1-(N-(2-fluorophenyl)-2-methylpropan-2-ylsulfonamido)-3-methylbutan-2-yl)-3-oxomorpholin-2-yl)acetic acid]	1
CC(C)[C@@H](CN(c1ccccc1F)S(=O)(=O)C(C)(C)C)N1C(=O)[C@@H](CC(=O)O)O[C@H](c2cccc(Cl)c2)[C@H]1c1ccc(Cl)cc1 (single isomer, unassigned) [Example 201, 2-((2R,5R,6R)-6-(3-chlorophenyl)-5-(4-chlorophenyl)-4-((S)-1-(N-(2-fluorophenyl)-2-methylpropan-2-ylsulfonamido)-3-methylbutan-2-yl)-3-oxomorpholin-2-yl)acetic acid or 2-((2S,5R,6R)-6-(3-chlorophenyl)-5-(4-chlorophenyl)-4-((S)-1-(N-(2-fluorophenyl)-2-methylpropan-2-ylsulfonamido)-3-methylbutan-2-yl)-3-oxomorpholin-2-yl)acetic acid]	2
CC[C@@H](CS(=O)(=O)c1ccccn1)N1C(=O)[C@@H](CC(=O)O)O[C@H](c2cccc(Cl)c2)[C@H]1c1ccc(Cl)cc1 (single isomer, unassigned) [Example 202, 2-((2R,5R,6R)-6-(3-chlorophenyl)-5-(4-chlorophenyl)-3-oxo-4-((S)-1-(pyridin-2-ylsulfonyl)butan-2-yl)morpholin-2-yl)acetic acid or 2-((2S,5R,6R)-6-(3-chlorophenyl)-5-(4-chlorophenyl)-3-oxo-4-((S)-1-(pyridin-2-ylsulfonyl)butan-2-yl)morpholin-2-yl)acetic acid]	4
CC[C@@H](CS(=O)(=O)c1ccccn1)N1C(=O)[C@@H](CC(=O)O)O[C@H](c2cccc(Cl)c2)[C@H]1c1ccc(Cl)cc1 (single isomer, unassigned) [Example 203, 2-((2R,5R,6R)-6-(3-chlorophenyl)-5-(4-chlorophenyl)-3-oxo-4-((S)-1-(pyridin-2-ylsulfonyl)butan-2-yl)morpholin-2-yl)acetic acid or 2-((2S,5R,6R)-6-(3-chlorophenyl)-5-(4-chlorophenyl)-3-oxo-4-((S)-1-(pyridin-2-ylsulfonyl)butan-2-yl)morpholin-2-yl)acetic acid]	20
CC[C@@H](CS(=O)(=O)N1CCC[C@@H]1C)N1C(=O)[C@@H](CC(=O)O)O[C@H](c2cccc(Cl)c2)[C@H]1c1ccc(Cl)cc1 (single isomer, unassigned) [Example 208, 2-((2R,5R,6R)-6-(3-chlorophenyl)-5-(4-chlorophenyl)-4-((S)-1-(((S)-2-methylpyrrolidin-1-yl)sulfonyl)butan-2-yl)-3-oxomorpholin-2-yl)acetic acid or 2-((2S,5R,6R)-6-(3-chlorophenyl)-5-(4-chlorophenyl)-4-((S)-1-(((S)-2-methylpyrrolidin-1-yl)sulfonyl)butan-2-yl)-3-oxomorpholin-2-yl)acetic acid]	2
